Results: PubChem BioAssay AID330 (DTP/NCI, 2004)
“And” between values parts separate entries of the source, which are not always exact repeats. Equal entries are not always repeated. Toxic doses and inconclusive results are not listed. Rule for the calls: active = survival T/C of 150% or more; inactive = T/C below 125% in these data.

System: P388 leukemia ip, CD2F1 mice, survival T/C
Test: NCI In Vivo Anticancer Drug Screen. Data for tumor model P388 Leukemia (intraperitoneal) in CD2F1 (CDF1) mice
Details: endpoint: median survival time, higher = longer survival
Outline: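 Mice carrying the transplanted tumor received test compound or vehicle. Survival was recorded in each group, and the value is the treated-group measurement divided by that of the vehicle-treated control group.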

[1] = dose: 12.5 mg/kg/injection, schedule: Q01DX009 (ip), vehicle: saline
[2] = dose: 25.0 mg/kg/injection, schedule: Q01DX009 (ip), vehicle: saline
[3] = dose: 50.0 mg/kg/injection, schedule: Q01DX009 (ip), vehicle: saline
[4] = dose: 240.0 mg/kg/injection, schedule: Q01DX005 (ip), vehicle: Klucel (hydroxypropylcellulose) (HPC)
[5] = dose: 100.0 mg/kg/injection, schedule: Q04DX003 (ip), vehicle: saline
[6] = dose: 200.0 mg/kg/injection, schedule: Q04DX003 (ip), vehicle: saline
[7] = dose: 12.5 mg/kg/injection, schedule: Q01DX005 (ip), vehicle: saline with Tween-80
[8] = dose: 25.0 mg/kg/injection, schedule: Q01DX005 (ip), vehicle: saline with Tween-80
[9] = dose: 50.0 mg/kg/injection, schedule: Q01DX005 (ip), vehicle: saline with Tween-80
[10] = dose: 100.0 mg/kg/injection, schedule: Q01DX009 (ip), vehicle: saline
[11] = dose: 200.0 mg/kg/injection, schedule: Q01DX009 (ip), vehicle: saline
[12] = dose: 50.0 mg/kg/injection, schedule: Q01DX009 (ip), vehicle: saline with Tween-80
[13] = dose: 100.0 mg/kg/injection, schedule: Q01DX009 (ip), vehicle: saline with Tween-80
[14] = dose: 200.0 mg/kg/injection, schedule: Q01DX009 (ip), vehicle: saline with Tween-80
[15] = dose: 100.0 mg/kg/injection, schedule: Q01DX001 (ip), vehicle: saline with Tween-80
[16] = dose: 400.0 mg/kg/injection, schedule: Q01DX009 (ip), vehicle: saline with Tween-80
[17] = dose: 50.0 mg/kg/injection, schedule: Q01DX005 (ip), vehicle: Klucel (hydroxypropylcellulose) (HPC)
[18] = dose: 100.0 mg/kg/injection, schedule: Q01DX005 (ip), vehicle: Klucel (hydroxypropylcellulose) (HPC)
[19] = dose: 200.0 mg/kg/injection, schedule: Q01DX005 (ip), vehicle: Klucel (hydroxypropylcellulose) (HPC)
[20] = dose: 100.0 mg/kg/injection, schedule: Q01DX005 (ip), vehicle: saline with Tween-80

Measured: T/C

C1=C(/N=NNc2ccccc2)CCCCCC/1
inactive: dose: 50.0 mg/kg/injection, schedule: Q01DX005 (ip), vehicle: Klucel + Tween-80 102 % of control | dose: 100.0 mg/kg/injection, schedule: Q01DX005 (ip), vehicle: Klucel + Tween-80 100 % of control | dose: 200.0 mg/kg/injection, schedule: Q01DX005 (ip), vehicle: Klucel + Tween-80 104 % of control

C[Se](=C(C(=O)c1ccccc1)C(=O)c1ccccc1)c1ccccc1 (stereo not given)
inactive: dose: 100.0 mg/kg/injection, schedule: Q04DX002 (ip), vehicle: saline 99 % of control | dose: 200.0 mg/kg/injection, schedule: Q04DX002 (ip), vehicle: saline 100 % of control | dose: 400.0 mg/kg/injection, schedule: Q04DX002 (ip), vehicle: saline 98 % of control

CNC(C#N)C(O)c1ccccc1 (stereo not given)
inactive: [1] 92 % of control | [2] 92 % of control | [3] 93 % of control and 97 % of control

NC=NC(CCC(=O)O)C(=O)O (stereo not given)
inactive: dose: 50.0 mg/kg/injection, schedule: Q01DX005 (ip), vehicle: saline 106 % of control and 92 % of control | dose: 100.0 mg/kg/injection, schedule: Q01DX005 (ip), vehicle: saline 99 % of control

CCOC(=O)c1ccc(NC(=O)N(C2CCCCC2)C2CCCCC2)cc1
inactive: dose: 3.75 mg/kg/injection, schedule: Q01DX005 (ip), vehicle: Klucel (hydroxypropylcellulose) (HPC) 93 % of control | dose: 7.5 mg/kg/injection, schedule: Q01DX005 (ip), vehicle: Klucel (hydroxypropylcellulose) (HPC) 94 % of control | dose: 15.0 mg/kg/injection, schedule: Q01DX005 (ip), vehicle: Klucel (hydroxypropylcellulose) (HPC) 89 % of control | [4] 87 % of control

Cc1nn(C(=O)c2ccncc2)c(C)c1N=Nc1ccc(S(=O)(=O)Nc2nccs2)cc1
inactive: [5] 96 % of control | [6] 97 % of control | dose: 400.0 mg/kg/injection, schedule: Q04DX003 (ip), vehicle: saline 110 % of control

Cc1nc(N)nc(N)c1-c1ccc(N)cc1
inactive: [7] 105 % of control | [8] 103 % of control | [9] 98 % of control and 105 % of control

CC1=NN(c2ccccc2)C(=O)C1N=Nc1ccccc1S(=O)(=O)O (stereo not given)
inactive: [3] 108 % of control | [10] 109 % of control | [11] 111 % of control

NNC(=O)c1cccc(C(=O)NN)c1
inactive: [12] 94 % of control | [13] 97 % of control | [14] 92 % of control

CC(C)(C)OC(=O)NC(Cc1cn(Cc2ccccc2)cn1)C(=O)O (stereo not given)
inactive: [12] 96 % of control | [13] 89 % of control | [14] 108 % of control

CC1CS(=O)(=O)O1 (stereo not given)
inactive: dose: 60.0 mg/kg/injection, schedule: Q01DX005 (ip), vehicle: Klucel (hydroxypropylcellulose) (HPC) 104 % of control | dose: 120.0 mg/kg/injection, schedule: Q01DX005 (ip), vehicle: Klucel (hydroxypropylcellulose) (HPC) 103 % of control | [4] 110 % of control

COc1ccc2cc1Oc1ccc(cc1)CC1c3cc(c(OC)cc3CCN1C)Oc1c(OC)c(OC)c(O)c3c1C(C2)N(C)CC3 (stereo not given)
inactive: dose: 25.0 mg/kg/injection, schedule: Q01DX001 (ip), vehicle: saline with Tween-80 99 % of control | dose: 50.0 mg/kg/injection, schedule: Q01DX001 (ip), vehicle: saline with Tween-80 105 % of control | [15] 108 % of control and 111 % of control

C=CCNC(=S)/N=C1\N=S(C)(=O)c2ccccc21 (stereo not given)
inactive: dose: 50.0 mg/kg/injection, schedule: Q01DX009 (ip), vehicle: Klucel (hydroxypropylcellulose) (HPC) 96 % of control | dose: 100.0 mg/kg/injection, schedule: Q01DX009 (ip), vehicle: Klucel (hydroxypropylcellulose) (HPC) 94 % of control | dose: 200.0 mg/kg/injection, schedule: Q01DX009 (ip), vehicle: Klucel (hydroxypropylcellulose) (HPC) 102 % of control

NC(C(=O)O)C(=O)c1ccccc1 (stereo not given)
inactive: [13] 100 % of control | [14] 100 % of control | [16] 118 % of control

CC1CCC(C)N1CCCCN1C(C)CCC1C (stereo not given)
inactive: dose: 3.13 mg/kg/injection, schedule: Q01DX009 (ip), vehicle: saline 104 % of control and 97 % of control | dose: 6.25 mg/kg/injection, schedule: Q01DX009 (ip), vehicle: saline 100 % of control and 104 % of control | [1] 100 % of control and 106 % of control | [2] 96 % of control

CC(C)C/C=C\CCCCCCCCCC(=O)NCC(=O)O
inactive: dose: 12.5 mg/kg/injection, schedule: Q01DX009 (ip), vehicle: distilled water + Tween-80 93 % of control | dose: 25.0 mg/kg/injection, schedule: Q01DX009 (ip), vehicle: distilled water + Tween-80 92 % of control | dose: 50.0 mg/kg/injection, schedule: Q01DX009 (ip), vehicle: distilled water + Tween-80 95 % of control | dose: 100.0 mg/kg/injection, schedule: Q01DX009 (ip), vehicle: distilled water + Tween-80 93 % of control | dose: 200.0 mg/kg/injection, schedule: Q01DX009 (ip), vehicle: distilled water + Tween-80 100 % of control

CNC(=O)Oc1cccc2c1C(=O)OC2=O
inactive: [15] 100 % of control | dose: 200.0 mg/kg/injection, schedule: Q01DX001 (ip), vehicle: saline with Tween-80 92 % of control | dose: 400.0 mg/kg/injection, schedule: Q01DX001 (ip), vehicle: saline with Tween-80 102 % of control

O=c1c2sc3ccccc3c2ncn1/N=C/c1cccc([N+](=O)[O-])c1
inactive: [17] 99 % of control | [18] 92 % of control | [19] 91 % of control

Cc1cc2c(oc(=O)c3cc(C)sc32)s1
inactive: [17] 99 % of control | [18] 103 % of control | [19] 97 % of control

COc1cc(OC)cc(C2OC(N)=C(O)C2=O)c1 (stereo not given)
inactive: [17] 93 % of control | [18] 90 % of control | [19] 91 % of control

O=NNc1cncc(Sc2ccccc2)n1
inactive: dose: 3.12 mg/kg/injection, schedule: Q01DX009 (ip), vehicle: water 97 % of control | dose: 6.25 mg/kg/injection, schedule: Q01DX009 (ip), vehicle: water 94 % of control | dose: 12.5 mg/kg/injection, schedule: Q01DX009 (ip), vehicle: water 101 % of control | dose: 25.0 mg/kg/injection, schedule: Q01DX008 (ip), vehicle: water 116 % of control | dose: 25.0 mg/kg/injection, schedule: Q01DX009 (ip), vehicle: water 107 % of control | dose: 50.0 mg/kg/injection, schedule: Q01DX008 (ip), vehicle: water 120 % of control | dose: 50.0 mg/kg/injection, schedule: Q01DX009 (ip), vehicle: water 92 % of control

CCC(C(=O)Nc1ccccc1-c1ccccc1)c1ccccc1 (stereo not given)
inactive: dose: 6.25 mg/kg/injection, schedule: Q01DX009 (ip), vehicle: saline with Tween-80 110 % of control | dose: 12.5 mg/kg/injection, schedule: Q01DX009 (ip), vehicle: saline with Tween-80 101 % of control | dose: 25.0 mg/kg/injection, schedule: Q01DX009 (ip), vehicle: saline with Tween-80 96 % of control | [10] 96 % of control | [11] 87 % of control

CC1(C)CC(=O)CC(C(Cl)(Cl)Cl)O1 (stereo not given)
inactive: [9] 99 % of control | [20] 100 % of control | dose: 200.0 mg/kg/injection, schedule: Q01DX005 (ip), vehicle: saline with Tween-80 98 % of control

c1ccc(-c2cc3cc4ccccc4cn3c2)cc1
inactive: [12] 105 % of control | [13] 108 % of control and 112 % of control and 92 % of control | [14] 117 % of control and 96 % of control | [16] 108 % of control and 120 % of control | dose: 600.0 mg/kg/injection, schedule: Q01DX009 (ip), vehicle: saline with Tween-80 117 % of control

C1CNC2NCCNC2N1 (stereo not given)
inactive: [2] 118 % of control

Cc1cccc2sc(NC(=O)Nc3cccc(F)c3)nc12
inactive: [7] 93 % of control and 94 % of control | [8] 100 % of control and 96 % of control | [9] 94 % of control and 96 % of control | [20] 104 % of control and 89 % of control

c1ccc(-c2[nH]nc3nc4c(nc23)CCCC4)cc1
inactive: [17] 89 % of control | [18] 99 % of control | [19] 92 % of control

CC(C)OC(=O)C1(N)CCCC1
inactive: [3] 97 % of control | [10] 87 % of control | [5] 95 % of control | [6] 104 % of control
